For data set [1], the system named is granulocytes. In words: TUNEL / propidium iodide flow cytometry, granulocytes. The data set is classed as cell-based, human. As to conditions: for cytotoxicity at 100 µg/mL: Homo sapiens. On the procedure: Human granulocytes were isolated from heparinized blood by diluting blood 1:1 with 6% dextran to sediment RBC, then centrifuging to obtain leukocyte rich plasma. The remaining RBC were lysed by 20 second incubation with 0.2% NaCl. After lysis, NaCl was added to a final concentration of 0.9%, the sample was centrifuged, and the cell pellet resuspended in HBSS containing 0.5% HSA. An equal volume of Histopaque (Sigma) was layered underneath the cell suspension. Upon centrifugation, the PBMC remained above the Histopaque layer, while the granulocytes were sedimented. Purity of collected granulocytes was assayed by flow cytometry using PE-conjugated […].
In the second method, DNA fragmentation was detected via TUNEL assay according to the manufacturer's instructions. With this methodology, 2×10^6 cells were fixed with 2% paraformaldehyde, permeabilized with 0.1% Triton X-100/0.1% citrate, incubated at 37° C. with terminal deoxynucleotidyl transferase and FITC-dUTP, rinsed and analyzed by flow cytometry. Enhanced FITC signal indicates apoptosis-specific DNA fragmentation. Gavriali, et al, "Identification of programmed cell death in situ via specific labeling of nuclear DNA fragmentation," J Cell Biol 119:493 (1992). Parallel aliquots of unfixed cells were treated with PI and FITC-conjugated anti-CD14 and analyzed by flow cytometry, in order to identify cells with permeable cell membranes (since PI binds to DNA but is excluded from cells with intact plasma membranes) and also to determine the cell-specificity of the apoptotic signal.
The effect of taurolidine on granulocytes was assayed by TUNEL analysis on taurolidine-treated purified granulocytes. These experiments were conducted in culture medium rather than whole blood. Granulocytes were treated with 100 μg/ml taurolidine since it had been shown that this concentration of taurolidine is apoptogenic to peripheral blood monocytes treated in culture medium. TUNEL-positive granulocytes ranged from 2% to 30% in untreated samples, and varied according to blood donor. […] Therefore, the apoptogenic effect of taurolidine is not specific to monocytic cells.
^a Analysis by flow cytometry after staining cells with PI and
processing for TUNEL. Data are mean ± SEM of 5 experiments.
On the technique in general: A flow cytometer gives signals particle by particle.

Data set [2] concerns HL-60. In words: growth rate after taurolidine treatment, HL-60. Type of data set: cell-based, human. On the procedure:
(§1) FIGS. 7A and 7B depict cell viability and growth rates for HL-60 cell line following taurolidine treatment, in terms of % trypan blue negative cells and % cell number, respectively. Cells were treated with various concentrations of taurolidine for 4 hours in AIM-V+0.01% BCS. After aliquots were collected for LDH assay, the remainder of the culture was rinsed in HBSS and resuspended in RPMI+10% BCS without taurolidine. Counts of trypan blue-negative cells (FIG. 7A), and total cell number (FIG. 7B), were recorded daily thereafter (with the measurement at Day 1 being made immediately after the 4 hour taurolidine treatment). Conditions were: no treatment (open circles); 25 μg/ml taurolidine (closed circles); 50 μg/ml taurolidine (open squares); 100 μg/ml taurolidine (closed squares); and vehicle alone (closed triangles). Doubling times were determined under each condition, and expressed as a percentage of the rate of doubling of untreated cells. These values are located to the right of the growth curves in (FIG. 7B). Cells were subcultured when they reached a concentration of 6×10^5 cells/ml. Data are mean±SEM of three experiments.
In these experiments, integrity of cell membranes following taurolidine treatment was assessed by exclusion of trypan blue and by measuring the release of LDH in MM6, K-562, HL-60, and REH cells. Since BCS contains significant amounts of LDH, these experiments were conducted on cells cultured in AIM-V+0.01% BCS. […] A parallel aliquot of cells was lysed by three cycles of freeze/thaw and the quantity of LDH released was taken to be 100%. […]
(§2) HL-60 cells treated with 50 μl taurolidine. In these samples, LDH present in the culture medium was 8.3±2.3% of that released by completely lysed cells, compared with 2.3±0.8% measured in control cultures. […] After 4 hour treatment, cells were rinsed and returned to growth medium and monitored for viability and growth over the following 3 days. […]
(§3) ^b Growth rate was measured over three days following treatment.

Data set [3] deals with epithelial cells. The note with it: 5 mg/ml taurolidine, two hours; cited from earlier work.
Data set [4] has as its system K-562. Nature of the data set: growth rate after taurolidine treatment, K-562. The data set is classed as cell-based, human. As for the experimental part: as §1, with “6A” for “7A”, “6B” for “7B”, “K562” for “HL-60”, “6A),” for “7A),”, “6B),” for “7B),”, “6B).” for “7B).”
(§4) In these experiments, integrity of cell membranes following taurolidine treatment was assessed by exclusion of trypan blue and by measuring the release of LDH in MM6, K-562, HL-60, and REH cells. Since BCS contains significant amounts of LDH, these experiments were conducted on cells cultured in AIM-V+0.01% BCS. Four hour treatment of cells was conducted in AIM-V containing 0.01% BCS in order to allow subsequent LDH assay without interference from BCS (which occurs in when normal culture medium, containing 10% BCS, is used). Thus, MM6 cells (5×10^5 cells/ml) were treated with taurolidine for four hours in AIM-V+0.01% BCS, after which an aliquot of the cell suspension was removed for measurement of LDH release. A parallel aliquot of cells was lysed by three cycles of freeze/thaw and the quantity of LDH released was taken to be 100%. Remaining cells were rinsed in HBSS and resuspended in growth medium for measurement of growth rates.
HL-60 cells treated with 50 μl taurolidine. In these samples, LDH present in the culture medium was 8.3±2.3% of that released by completely lysed cells, compared with 2.3±0.8% measured in control cultures. […] After 4 hour treatment, cells were rinsed and returned to growth medium and monitored for viability and growth over the following 3 days. Concentrations of taurolidine from 25 μg/ml to 100 μ/ml were used in order to highlight differences in sensitivity of cell lines to taurolidine.
as §3

Data set [5] concerns other leukemia-derived cell lines. Nature of the data set: growth after taurolidine treatment, other leukemia-derived cell lines. Type of data set: cell-based, human. As to conditions: 50 μg/ml or greater. On the procedure:
as §4, §2

Read-outs that look alike come from different tables or passages of the source.

For `O=S1(=O)CCN(CN2CCS(=O)(=O)NC2)CN1` [taurolidine, 4,4'-methylenebis(perhydro-1,2,4-thiadiazin 1,1-dioxide)], the apoptosis of granulocytes in data set [1] (100 μg/ml taurolidine, within 6 h, culture medium) is given as 92%. Besides, the cytotoxicity at 100 µg/mL in data set [1] (6 h, granulocytes, 100 μg/ml taurolidine, mean ± SEM of 5 experiments (Table VII), read-out: % propidium iodide positive) was 1.6 ± 0.5%; in data set [1] (granulocytes, 100 μg/ml, 6 hours (Table V), read-out: % Propidium Iodide Positive Cells), 2%. Further, the “effectiveness in granulocytes relative to monocytes” value in data set [1] (TUNEL, purified cells in culture medium) is listed as “at least as effective”. The “% TUNEL-positive” value in data set [1] (granulocytes, 100 μg/ml taurolidine, mean ± SEM of 5 experiments (Table VII)) amounted to 91.5 ± 3.5%. Besides, the “% TUNEL-Negative Cells” value in data set [1] (granulocytes, 100 μg/ml, 6 hours (Table V)) is 8%. In addition, the entries for the “sensitivity of cell growth among cell lines” value in data set [2] (HL-60) and in data set [4] (K562) were “most inhibited” and “least affected”, respectively. In addition, the activity at 50 µg/mL in data set [2] (Homo sapiens, 72 h, HL-60, 50 μg/ml for 4 h, growth over three days, read-out: growth rate (% of control)) stood at 0%; in data set [4] (Homo sapiens, K562, 72 h, K-562, 50 μg/ml for 4 h, growth over three days, read-out: growth rate (% of control)), 52%. In addition, the activity at 100 µg/mL in data set [2] (Homo sapiens, 72 h, HL-60, 100 μg/ml for 4 h, growth over three days, read-out: growth rate (% of control)) was determined as 3%; in data set [4] (Homo sapiens, K562, 72 h, K-562, 100 μg/ml for 4 h, growth over three days, read-out: growth rate (% of control)), 0%. In addition, the “toxic effects on epithelial cells” value in data set [3] was “No toxic effects”. Further, the “growth after taurolidine treatment” value is given as “inhibition of growth” in data set [4] (K562, 50 μg/ml or greater) and “inhibition of growth” in data set [5].

These data come from patent US6303596A, “Use of taurolidine for treatment of leukemias” (priority 2000, dated 2001).
